The values that follow come from patent US5750724A, “Indolealkyl derivatives of benzodioxanmethylamine” (American Home Products Corporation, priority 1996, dated 1998).

Test [1] addresses T1, 5-HT1A serotonin receptor (Rattus norvegicus, UniProt P19327).
T1 construct: following the procedure of Hall et al., J. Neurochem; 44, 1685 (1985); from tissue
T1 sequence (P19327 1-422): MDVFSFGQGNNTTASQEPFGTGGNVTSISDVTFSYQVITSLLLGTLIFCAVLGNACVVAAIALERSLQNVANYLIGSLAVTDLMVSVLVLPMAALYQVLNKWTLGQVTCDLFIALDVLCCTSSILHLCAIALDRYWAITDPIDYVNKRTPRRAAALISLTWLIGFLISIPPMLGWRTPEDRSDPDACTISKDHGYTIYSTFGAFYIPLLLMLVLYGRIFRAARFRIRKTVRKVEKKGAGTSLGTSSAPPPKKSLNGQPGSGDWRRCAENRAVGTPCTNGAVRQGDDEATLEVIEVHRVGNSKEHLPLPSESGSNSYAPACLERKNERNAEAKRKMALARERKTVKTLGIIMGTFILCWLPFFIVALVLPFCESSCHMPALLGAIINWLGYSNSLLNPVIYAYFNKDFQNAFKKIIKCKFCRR
The test is described as follows: displacement of [3H] 8-OHDPAT (dipropylaminotetralin) from the 5-HT1A serotonin receptor (Hall et al.). The test is classed as binding. The settings on record: read-out: 5-HT1A Receptor Affinity IC50. The source says:
High affinity for the serotonin 5-HT1A receptor was established by testing the claimed compound's ability to displace [^3 H] 8-OHDPAT (dipropylaminotetralin) from the ^5 -HT1A serotonin receptor following the procedure of Hall et al., J. Neurochem. 44, 1685 (1985). […] The anxiolytic and antidepressant activity of these agents are believed to be, at least partially, due to their 5-HT1A receptor affinity (Vander Maclen et al., Eur. J. Pharmacol. 1986, 129 (1-2) […] and Lucki, J. Clin. Psychiat. 1992, 52, 24-31).

Test [2] deals with T2, dopamine D2 receptor (Rattus norvegicus, UniProt P61169).
T2 construct: homogenized rat striatal brain tissue; from tissue; host or cells: rat striatum homogenate
T2 sequence (P61169 whole entry): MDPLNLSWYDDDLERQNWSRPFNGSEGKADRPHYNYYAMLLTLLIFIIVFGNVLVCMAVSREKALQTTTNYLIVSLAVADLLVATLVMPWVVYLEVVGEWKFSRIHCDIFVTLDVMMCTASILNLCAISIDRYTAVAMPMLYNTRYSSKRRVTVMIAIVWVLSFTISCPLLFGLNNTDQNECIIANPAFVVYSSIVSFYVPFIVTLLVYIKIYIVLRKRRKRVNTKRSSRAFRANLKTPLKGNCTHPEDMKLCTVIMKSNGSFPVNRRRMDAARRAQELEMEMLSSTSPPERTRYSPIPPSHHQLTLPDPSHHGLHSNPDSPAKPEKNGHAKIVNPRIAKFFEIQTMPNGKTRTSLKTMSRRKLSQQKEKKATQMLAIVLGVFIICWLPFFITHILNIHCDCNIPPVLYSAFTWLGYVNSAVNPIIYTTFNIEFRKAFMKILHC
Description: dopamine D2 receptor affinity, 3H-quinpirole, homogenized rat striatal brain tissue (modified Seemen and Schaus). The test is classed as binding. The procedure: Affinity for the dopamine D2 receptor was established by a modification of the standard experimental test procedure of Seemen and Schaus, European Journal of Pharmacology 203: 105-109, 1991, wherein homogenized rat striatal brain tissue is incubated with ^3 H-quinpirole and various concentrations of test compound, filtered and washed and counted in a Betaplate scintillation counter.

Test [3] concerns 3H 5-hydroxytryptamine uptake. The test is described as follows: inhibition of 3H 5-hydroxytryptamine uptake, crude synaptosomes from rat frontal cortex (modified Wood and Willie). The test is classed as biochemical. The conditions noted are these: nonspecific uptake in presence of 10 μM fluoxetine, read-out: Inhibition 5-HT Uptake IC50. The procedure:
Inhibition of ^3 H 5-hydroxytryptamine uptake was established using a modification of the procedure of Wood and Willie, J. Neurochem. 37:795, 1981. Crude synaptosomes prepared from rat frontal cortex were utilized and nonspecific uptake was defined as that occurring in the presence of excess (10 μM) fluoxetine.

The target of test [4] is T1, 5-HT1A serotonin receptor. The settings on record: reference agents; cited from earlier work.
The conditions of test [5]: cited from earlier work.

`c1ccc2c(CCCCNC[C@H]3COc4cc5c(cc4O3)OCO5)c[nH]c2c1` [Example 1, [(6,7-Dihydro-1,3-dioxolo[4,5-g][1,4]benzodioxin-6-yl)methyl]-[4-(1H-indol-3-yl)-butyl]-amine]: the values for the 50% inhibitory concentration (IC50) in test [1] and in test [2] were 5.6 nM and 116 nM, respectively.
For `COc1ccc2c(c1)O[C@@H](CNCCCCc1c[nH]c3ccccc13)CO2` [Example 2, [4-(1H-Indol-3-yl)-butyl]-(7-methoxy-2,3-dihydro-benzo[1,4]dioxin-2-ylmethyl)amine] the same measures were 5.7 nM and 82 nM.
For `Oc1ccc2c(c1)OC(CNCCCCc1c[nH]c3ccccc13)CO2` (centres unmarked) [Example 3, 3-{[4-(1H-Indol-3-yl)-butylamino}-methyl}-2,3-dihydro-benzo[1,4]dioxin-6-ol] the same measures were 6 nM and 1.3 nM.
Taken in the same sequence, the figures for `c1ccc(COc2ccc3[nH]cc(CCCNCC4COc5ccccc5O4)c3c2)cc1` (centres unmarked) [Example 4, [3-(5-Benzyloxy-1H-indol-3-yl)-propyl]-(2,3-dihydro-benzo[1,4]dioxin-2-ylmethyl)-amine] were 8.05 nM and 102 nM.
With `Oc1ccc2[nH]cc(CCCNCC3COc4ccccc4O3)c2c1` (centres unmarked) [Example 5, 3-{3-[(2,3-Dihydro-benzo[1,4]dioxin-2-ylmethyl)-amino]-propyl}-1H-indol-5-o], the IC50 in test [1] turned out to be 0.06 nM; in test [3], 52 nM; in test [2], 6.5 nM.
As to `COc1ccc2c(c1)OC(CNCCCc1c[nH]c3ccc(O)cc13)CO2` (centres unmarked) [Example 6, 3-{3-[(7-Methoxy-2,3-dihydro-benzo[1,4]dioxin-2-ylmethyl)-amino]-propyl}-1H-indol-5-ol], the IC50 in test [1] was 2.7 nM; in test [2] it was 45 nM.
Regarding `COc1ccc2c(c1)OC(CN(C)CCCc1c[nH]c3ccc(OC)cc13)CO2` (centres unmarked) [Example 7, (7-Methoxy-2,3-dihydro-benzo[1,4]dioxin-2-ylmethyl)-[3-(5-methoxy-1H-indol-3-yl)-propyl]-methyl-amine], the IC50 stood at 6.74 nM in test [1] and 1230 nM in test [2].
For `Oc1ccc2c(c1)OC(CNCCCc1c[nH]c3ccc(O)cc13)CO2` (centres unmarked) [Example 8, 3-{3-[(7-Hydroxy-2,3-dihydro-benzo[1,4]dioxin-2-ylmethyl)-amino]-propyl}-1H-indol-5-ol] the same measures were 0.35 nM and 0.61 nM.
On to `COc1ccc2c(c1)OC(CNCCCCc1c[nH]c3ccc(OC)cc13)CO2` (centres unmarked) [Example 9, (7-Methoxy-2,3-dihydro-benzo[1,4]dioxin-2-ylmethyl)-[4-(5-methoxy-1 H-indol-3-yl)-butyl]-amine], for which the half-inhibitory concentration (IC50) in test [1] is 0.8 nM; in test [3], 738 nM; in test [2] it was 64 nM.
In the case of `COc1ccc2[nH]cc(CCCCNCC3COc4ccc(O)cc4O3)c2c1` (centres unmarked) [Example 10, 3-{[4-(5-Methoxy-1H-indol-3-yl)-butylamino]methyl}-2,3-dihydrobenzo[1,4]dioxin-6-ol], the IC50 in test [1] came out at 1.94 nM; in test [2], 0.39 nM.
In the case of `CS(=O)(=O)Nc1ccc2c(c1)OC(CNCCCCc1c[nH]c3ccccc13)CO2` (centres unmarked) [Example 11, N-(3-{[4-(1 H-Indol-3-yl)-butylamino]-methyl}-2,3-dihydro-benzo[1,4]dioxin-6-yl)-methanesulfonamide], the IC50 came out at 3.89 nM in test [1], 13.5 nM in test [3] and 2.37 nM in test [2].
Taken in the same sequence, the figures for `COc1ccc2[nH]cc(CCCNCC3COc4ccccc4O3)c2c1` (centres unmarked) [Example 12, (2.3-Dihydro-benzo[1,4]dioxin-2-ylmethyl)-[3-(5-methoxy-1H-indol-3-yl)-propyl]-amine] were 0.1 nM, 2380 nM and 1.55 nM.
Taken in the same sequence, the figures for `Fc1ccc2[nH]cc(CCCNCC3COc4ccccc4O3)c2c1` (centres unmarked) [Example 13, (2,3-Dihydro-benzo[1,4]dioxin-2-ylmethyl)-[3-(5-fluoro-1H-indol-3-yl)-propyl]-amine] were 0.12 nM, 154 nM and 8.13 nM.
Consider `COc1ccc2[nH]cc(CCCCNCC3COc4ccc(NS(C)(=O)=O)cc4O3)c2c1` (centres unmarked) [Example 14, N-(3-{[4-(5-Methoxy-1 H-indol-3-yl)-butylamino]-methyl}-2,3-dihydrobenzo[1,4]dioxin-6-yl)-methanesulfonamide], for which the concentration for half-maximal inhibition (IC50) in test [1] was 0.81 nM; in test [2], 4.75 nM.
With `Oc1ccc2c(c1)OC(CNCCCc1c[nH]c3ccccc13)CO2` (centres unmarked) [Example 15, 3-{[4-(1H-Indol-3-yl)-propylamino]-methyl}-2,3-dihydro-benzo[1,4]dioxin-6-ol], the half-maximal inhibitory concentration (IC50) in test [1] amounted to 4.85 nM; in test [2], 0.3 nM.
In the case of `c1ccc2c(c1)OCC(CNCCCCc1c[nH]c3ccccc13)O2` (centres unmarked) [Example 16, (2,3-Dihydro-benzo[1,4]dioxin-2-ylmethyl)-[4-(1H-indol-3-yl)-butyl]-amine], the figures for the IC50 in test [1] and in test [2] were 4.86 nM and 13.6 nM, respectively.
Taken in the same sequence, the figures for `c1ccc2c(c1)OCC(CNCCCc1c[nH]c3ccccc13)O2` (centres unmarked) [Example 17, (2.3-Dihydro-benzo[1,4]dioxin-2-ylmethyl)-[3-(1H-indol-3-yl)-propyl]-amine] were 3.77 nM and 3.5 nM.
Taken in the same sequence, the figures for `Fc1ccc2[nH]cc(CCCCNCC3COc4ccccc4O3)c2c1` (centres unmarked) [Example 18, (2,3-Dihydro-benzo[1,4]dioxin-2-ylmethyl)-[4-(5-fluoro-1H-indol-3-yl)-butyl]-amine] were 3.95 nM and 18.4 nM.
Taken in the same sequence, the figures for `COc1ccc2c(c1)OC(CNCCCCc1c[nH]c3ccc(F)cc13)CO2` (centres unmarked) [Example 19, [4-(5-Fluoro-1H-indole-3-yl)-butyl]-(7-methoxy-2,3-dihydro-benzo[1,4]dioxin-2-ylmethyl)-amine] were 5.5 nM and 72 nM.
For the compound `Oc1ccc2c(c1)O[C@@H](CNCCCc1c[nH]c3ccccc13)CO2` [Example 20, 3-{[3-(1H-Indol-3-yl)-propylamino]methyl}-2,3-dihydro-benzo[1,4]dioxin-6-ol], the IC50 in test [1] was 5.9 nM; in test [2], 0.13 nM.
For `CS(=O)(=O)Nc1ccc2c(c1)O[C@@H](CNCCCc1c[nH]c3ccccc13)CO2` [Example 21, N-(3-{[3-(1H-Indol-3-yl)-propylamino]methyl}-2,3-dihydro-benzo[1,4]dioxin-6-yl)-methanesulfonamide] the same measures were 5.8 nM and 0.76 nM.
For `Cn1cc(CCCCNCC2COc3ccccc3O2)c2cc(F)ccc21` (centres unmarked) [Example 22, (2,3-Dihydro-benzo[1,4]dioxin-2-ylmethyl)-{4-[5-fluoro-1-methyl-1H-(indole-3-yl)]-butyl}-amine] the same measures were 16 nM and 49.8 nM.
For `COc1ccc2[nH]cc(CCCCNCC3COc4ccccc4O3)c2c1` (centres unmarked) [Example 23, (2,3-Dihydro-benzo[1,4]dioxin-2-ylmethyl)-[4-(5-methoxy-1H-indol-3-yl)-butyl]-amine] the same measures were 0.56 nM and 6.63 nM.
Take `Cn1cc(CCCNCC2COc3ccc(NS(C)(=O)=O)cc3O2)c2ccccc21` (centres unmarked) [Example 24, N-(3-{[3-(1-Methyl-1H-indol-3-yl)-propylamino]-methyl}-2,3-dihydrobenzo[1,4]dioxin-6-yl)-methanesulfonamide]: the half-maximal inhibitory concentration (IC50) in test [1] came to 9.29 nM; in test [2] it was 20.4 nM.
In the case of `O=C1CC2(CCCC2)CC(=O)N1CCCCN1CCN(c2ncccn2)CC1` [buspirone], in test [4], the “affinity for the 5-HT1A serotonin receptor subtype (in words)” value is “potent affinity”.
With `CNCCC(Oc1ccc(C(F)(F)F)cc1)c1ccccc1` (centres unmarked) [fluoxetine, reference compound], in test [3], the IC50 stood at 71 nM.
Take `CC1(C)CC(=O)N(CCCCN2CCN(c3ncccn3)CC2)C(=O)C1` [gepirone]: the “anxiolytic and antidepressant activity in clinical trials (in words)” value in test [5] is “demonstrated both anxiolytic and antidepressant activity in clinical trials”. For the same compound, in test [4], the “affinity for the 5-HT1A serotonin receptor subtype (in words)” value is reported as “potent affinity”.
`CN(C)CCCN1c2ccccc2CCc2ccccc21` [imipramine, reference compound]: the concentration for half-maximal inhibition (IC50) in test [3] came out at 120 nM.
The same measure, in the same setting: to `CN(C)C/C=C(/c1ccc(Br)cc1)c1cccnc1` [zimelidine, reference compound] belongs 240 nM.
